Measured values: ChEMBL document CHEMBL4270557, “Discovery of potent anti-convulsant carbonic anhydrase inhibitors: Design, synthesis, in vitro and in vivo appraisal” (Eur J Med Chem, 2018)

Assays:
Mus musculus [1] = assay: Anticonvulsant activity in Swiss albino mouse assessed as protection against subcutaneous PTZ-induced seizures at 30 mg/kg, ip administered 3 hrs prior to PTZ-induction relative to control; assay type: functional
Carbonic anhydrase 7 = Carbonic anhydrase 7 (Homo sapiens, UniProt P43166); assay: Inhibition of human recombinant carbonic anhydrase 7 assessed as CO2 hydration preincubated for 15 mins prior to testing measured for 10 to 100 secs by phenol red dye-based stopped-flow assay
Mus musculus [2] = assay: Anticonvulsant activity in Swiss albino mouse assessed as protection against maximal electroshock-induced seizures at 30 mg/kg, ip administered 6 hrs prior to 50 mA current induction relative to control; assay type: functional
Mus musculus [3] = assay: Anticonvulsant activity in Swiss albino mouse assessed as protection against maximal electroshock-induced seizures at 100 mg/kg, ip administered 0.5 hrs prior to 50 mA current induction relative to control
Rattus norvegicus [4] = assay: Sub-acute toxicity in Wistar rat assessed as phosphorus level at 100 mg/kg, po administered daily for 14 days (reference value: 6.71 +/- 1 mg/dl); assay type: organism-based; settings: in vivo, 336 h
Rattus norvegicus [5] = assay: Sub-acute toxicity in Wistar rat assessed as total bilirubin level at 100 mg/kg, po administered daily for 14 days (reference value: 0.37 +/- 0.11 mg/dl); assay type: organism-based; settings: in vivo, 336 h
Rattus norvegicus [6] = assay: Sub-acute toxicity in Wistar rat assessed as effect on food intake at 100 mg/kg, po administered daily for 14 days; assay type: organism-based; settings: in vivo, 336 h
Rattus norvegicus [7] = assay: Sub-acute toxicity in Wistar rat assessed as Cl- level at 100 mg/kg, po administered daily for 14 days (reference value: 104.1 +/- 6.2 mEq/L); assay type: organism-based; settings: in vivo, 336 h
Rattus norvegicus [8] = assay: Anticonvulsant activity in Wistar rat assessed as protection against maximal electroshock-induced seizures at 30 mg/kg, po administered 2 hrs prior to 150 mA current induction relative to control; assay type: functional
Rattus norvegicus [9] = assay: Sub-acute toxicity in Wistar rat assessed as basophils level at 100 mg/kg, po administered daily for 14 days (reference value: 0.16 +/- 0.4%); assay type: organism-based; settings: in vivo, 336 h
Homo sapiens [10] = organism: Homo sapiens; assay: Selectivity ratio of Ki for human recombinant carbonic anhydrase 2 to Ki for human recombinant carbonic anhydrase 7
Mus musculus [11] = assay: Anticonvulsant activity in Swiss albino mouse assessed as protection against maximal electroshock-induced seizures at 30 mg/kg, ip administered 4 hrs prior to 50 mA current induction relative to control; assay type: functional
Rattus norvegicus [12] = assay: Sub-acute toxicity in Wistar rat assessed as neutrophils level at 100 mg/kg, po administered daily for 14 days (reference value: 23.4 +/- 2.9%); assay type: organism-based; settings: in vivo, 336 h
Rattus norvegicus [13] = assay: Sub-acute toxicity in Wistar rat assessed as creatinine level at 100 mg/kg, po administered daily for 14 days (reference value: 0.62 +/- 0.3 mg/dl); assay type: organism-based; settings: in vivo, 336 h
Mus musculus [14] = assay: Anticonvulsant activity in Swiss albino mouse assessed as protection against subcutaneous PTZ-induced seizures at 30 mg/kg, ip administered 0.5 hrs prior to PTZ-induction relative to control; assay type: functional
Carbonic anhydrase 1 = Carbonic anhydrase 1 (Homo sapiens, UniProt P00915); assay: Inhibition of human recombinant carbonic anhydrase 1 assessed as CO2 hydration preincubated for 15 mins prior to testing measured for 10 to 100 secs by phenol red dye-based stopped-flow assay
Mus musculus [15] = assay: Anticonvulsant activity in Swiss albino mouse assessed as protection against maximal electroshock-induced seizures at 30 mg/kg, ip administered 0.5 hrs prior to 50 mA current induction relative to control; assay type: functional
Rattus norvegicus [16] = assay: Anticonvulsant activity in Wistar rat assessed as protection against maximal electroshock-induced seizures at 30 mg/kg, po administered 0.25 hrs prior to 150 mA current induction relative to control; assay type: functional
Rattus norvegicus [17] = assay: Sub-acute toxicity in Wistar rat assessed as calcium level at 100 mg/kg, po administered daily for 14 days (reference value: 10.5 +/- 1.5 mg/dl); assay type: organism-based; settings: in vivo, 336 h
Rattus norvegicus [18] = assay: Anticonvulsant activity in Wistar rat assessed as protection against maximal electroshock-induced seizures at 30 mg/kg, po administered 1 hr prior to 150 mA current induction relative to control; assay type: functional
Mus musculus [19] = assay: Anticonvulsant activity in Swiss albino mouse assessed as protection against maximal electroshock-induced seizures at 100 mg/kg, ip administered 0.5 hrs prior to 50 mA current induction relative to control; assay type: functional
Rattus norvegicus [20] = assay: Sub-acute toxicity in Wistar rat assessed as total protein level at 100 mg/kg, po administered daily for 14 days (reference value: […]); assay type: organism-based; settings: in vivo, 336 h
Mus musculus [21] = assay: Anticonvulsant activity in Swiss albino mouse assessed as protection against maximal electroshock-induced seizures at 100 mg/kg, ip administered 3 hrs prior to 50 mA current induction relative to control; assay type: functional
Homo sapiens [22] = organism: Homo sapiens; assay: Selectivity ratio of Ki for human recombinant carbonic anhydrase 9 to Ki for human recombinant carbonic anhydrase 7
Rattus norvegicus [23] = assay: Sub-acute toxicity in Wistar rat assessed as lymphocytes level at 100 mg/kg, po administered daily for 14 days (reference value: 72.3 +/- 6.7%); assay type: organism-based; settings: in vivo, 336 h
Mus musculus [24] = assay: Anticonvulsant activity in Swiss albino mouse assessed as protection against maximal electroshock-induced seizures at 30 mg/kg, ip administered 3 hrs prior to 50 mA current induction relative to control; assay type: functional
Rattus norvegicus [25] = assay: Sub-acute toxicity in Wistar rat assessed as blood urea level at 100 mg/kg, po administered daily for 14 days (reference value: 40.7 +/- 3.3 mg/dl); assay type: organism-based; settings: in vivo, 336 h
Carbonic anhydrase 9 = Carbonic anhydrase 9 (Homo sapiens, UniProt Q16790); assay: Inhibition of human recombinant carbonic anhydrase 9 assessed as CO2 hydration preincubated for 15 mins prior to testing measured for 10 to 100 secs by phenol red dye-based stopped-flow assay
Homo sapiens [26] = organism: Homo sapiens; assay: Selectivity ratio of Ki for human recombinant carbonic anhydrase 1 to Ki for human recombinant carbonic anhydrase 7
Rattus norvegicus [27] = assay: Sub-acute toxicity in Wistar rat assessed as monocytes level at 100 mg/kg, po administered daily for 14 days (reference value: 2.6 +/- 1.5%); assay type: organism-based; settings: in vivo, 336 h
Mus musculus [28] = assay: Anticonvulsant activity in Swiss albino mouse assessed as protection against maximal electroshock-induced seizures at 30 mg/kg, ip administered 1 hr prior to 50 mA current induction relative to control; assay type: functional
Rattus norvegicus [29] = assay: Sub-acute toxicity in Wistar rat assessed as K+ level at 100 mg/kg, po administered daily for 14 days (reference value: 4.79 +/- 0.45 mEq/L); assay type: organism-based; settings: in vivo, 336 h
Rattus norvegicus [30] = assay: Sub-acute toxicity in Wistar rat assessed as eosinophils level at 100 mg/kg, po administered daily for 14 days (reference value: 2 +/- 1.4%); assay type: organism-based; settings: in vivo, 336 h
Rattus norvegicus [31] = assay: Sub-acute toxicity in Wistar rat assessed as platelet level at 100 mg/kg, po administered daily for 14 days (reference value: 760.8 +/- 179.9 10^3/mm3); assay type: organism-based; settings: in vivo, 336 h
Rattus norvegicus [32] = assay: Anticonvulsant activity in Wistar rat assessed as protection against maximal electroshock-induced seizures at 30 mg/kg, po administered 0.5 hrs prior to 150 mA current induction relative to control; assay type: functional
Rattus norvegicus [33] = assay: Sub-acute toxicity in Wistar rat assessed as effect on water intake at 100 mg/kg, po administered daily for 14 days; assay type: organism-based; settings: in vivo, 336 h

Carbonic anhydrase 7, sequence (P43166 whole entry): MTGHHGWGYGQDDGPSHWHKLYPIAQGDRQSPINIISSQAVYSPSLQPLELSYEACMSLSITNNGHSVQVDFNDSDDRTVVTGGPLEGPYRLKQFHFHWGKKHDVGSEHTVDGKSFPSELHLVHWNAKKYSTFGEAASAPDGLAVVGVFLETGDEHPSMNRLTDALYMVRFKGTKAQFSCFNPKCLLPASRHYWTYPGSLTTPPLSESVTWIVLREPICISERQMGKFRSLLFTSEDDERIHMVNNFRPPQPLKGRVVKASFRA
Carbonic anhydrase 1, sequence (P00915 whole entry): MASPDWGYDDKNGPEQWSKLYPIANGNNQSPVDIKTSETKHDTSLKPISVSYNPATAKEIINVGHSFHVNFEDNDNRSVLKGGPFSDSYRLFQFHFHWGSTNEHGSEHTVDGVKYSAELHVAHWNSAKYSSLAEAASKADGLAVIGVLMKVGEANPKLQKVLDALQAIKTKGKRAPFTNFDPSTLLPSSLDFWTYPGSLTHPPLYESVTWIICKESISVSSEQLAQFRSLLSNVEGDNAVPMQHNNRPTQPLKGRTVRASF

Molecule `Cc1ccc(N2CCN(c3ccc(/C=N/NC(=O)c4ccc(S(N)(=O)=O)cc4)cc3)CC2)c(C)c1` has an Activity (Mus musculus [1]) of 67%, a Ki (Carbonic anhydrase 7) of 17.8 nM and an Activity (Mus musculus [2]) of 60%. For the same molecule, the Activity (Mus musculus [3]) was 50%, the Activity (Rattus norvegicus [4]) was 6.48 mg/dL and the Activity (Rattus norvegicus [5]) was 0.35 mg/dL. The Activity (Rattus norvegicus [6]) was “Non-Toxic”, the Activity (Rattus norvegicus [7]) was 105.6 mEq/L and the Activity (Rattus norvegicus [8]) was 67%. The Activity (Rattus norvegicus [9]) was 0.33%, the Ratio Ki (Homo sapiens [10]) was 527 and the Activity (Mus musculus [11]) was 50%. It also gave an Activity (Rattus norvegicus [12]) of 23.1%, an Activity (Rattus norvegicus [13]) of 0.75 mg/dL and an Activity (Mus musculus [14]) of 50%. For the same molecule, the Ki (Carbonic anhydrase 1) was > 10000 nM, the Activity (Mus musculus [15]) was 67 - 70% and the Activity (Rattus norvegicus [16]) was 17%. For the same molecule, the Activity (Rattus norvegicus [17]) was 10 mg/dL, the Activity (Rattus norvegicus [18]) was 84% and the Activity (Mus musculus [19]) was 50%. It also gave an Activity (Rattus norvegicus [20]) of 6.62 g/dL, an Activity (Mus musculus [21]) of 50% and a Ratio Ki (Homo sapiens [22]) of 93. The Activity (Rattus norvegicus [23]) was 71.5%, the Activity (Mus musculus [24]) was 70% and the Activity (Rattus norvegicus [25]) was 39.6 mg/dL. The Ki (Carbonic anhydrase 9) was 1660 nM, the Ratio Ki (Homo sapiens [26]) was 561 and the Activity (Rattus norvegicus [27]) was 2%. It also gave an Activity (Mus musculus [28]) of 60%, an Activity (Rattus norvegicus [29]) of 4.83 mEq/L and an Activity (Rattus norvegicus [30]) of 2.6%. The Activity (Rattus norvegicus [31]) was 622.3 ×10³ /mm3, the Activity (Rattus norvegicus [32]) was 67 - 84% and the Activity (Rattus norvegicus [33]) was “Non-Toxic”.
